Assays:
Test in all cases: Screen Quest Fluo-8 No Wash Calcium Assay (Bz-ATP evoked Ca2+ influx, FLIPR)
Format in all cases: cell-based
[1] = target: T1, P2X7 receptor (Homo sapiens, UniProt Q99572); set-up: hP2X7 (IC50; nM); other: hP2X7; HEK-293 cells stably transfected with P2X7 receptor, Bz-ATP at EC80, Fluo-8 NW; potency; settings: hP2X7; HEK-293 cells stably transfected with P2X7 receptor, Bz-ATP at EC80, Fluo-8 NW; potency ranges A-D
T1 sequence (Q99572 1-595): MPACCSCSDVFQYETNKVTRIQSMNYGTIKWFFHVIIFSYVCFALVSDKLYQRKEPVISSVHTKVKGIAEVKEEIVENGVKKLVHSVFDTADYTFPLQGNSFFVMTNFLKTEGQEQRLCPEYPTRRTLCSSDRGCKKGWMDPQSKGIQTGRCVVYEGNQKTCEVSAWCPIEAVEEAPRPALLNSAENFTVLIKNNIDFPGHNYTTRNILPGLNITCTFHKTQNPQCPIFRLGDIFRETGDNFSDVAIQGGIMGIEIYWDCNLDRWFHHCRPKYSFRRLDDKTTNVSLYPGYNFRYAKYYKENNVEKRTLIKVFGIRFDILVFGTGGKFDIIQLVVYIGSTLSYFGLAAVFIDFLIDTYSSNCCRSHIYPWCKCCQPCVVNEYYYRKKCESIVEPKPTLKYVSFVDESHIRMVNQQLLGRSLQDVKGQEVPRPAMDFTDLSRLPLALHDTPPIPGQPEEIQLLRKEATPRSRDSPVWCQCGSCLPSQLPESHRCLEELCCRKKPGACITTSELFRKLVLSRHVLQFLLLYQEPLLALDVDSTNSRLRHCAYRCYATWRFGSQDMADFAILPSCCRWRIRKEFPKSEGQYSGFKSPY
How it was run: (§1)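 HEK-293 cells stably expressing P2X7 were loaded with Fluo-8 NW for 1 h at RT, then given compound, and 5 min later Bz-ATP at EC80. Fluorescence was read by FLIPR in low divalent cation buffer (0.3 mM Ca2+, 0 mM Mg2+). IC50 came from percent inhibition relative to reference antagonist A438079.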

[2] = target: T2, P2X7 receptor (Rattus norvegicus, UniProt Q64663); settings: rP2X7; HEK-293 cells stably transfected with P2X7 receptor, Bz-ATP at EC80, Fluo-8 NW; potency ranges A-D
T2 construct: rP2X7 (IC50; nM); other: rP2X7; HEK-293 cells stably transfected with P2X7 receptor, Bz-ATP at EC80, Fluo-8 NW; potency
T2 sequence (Q64663 1-595): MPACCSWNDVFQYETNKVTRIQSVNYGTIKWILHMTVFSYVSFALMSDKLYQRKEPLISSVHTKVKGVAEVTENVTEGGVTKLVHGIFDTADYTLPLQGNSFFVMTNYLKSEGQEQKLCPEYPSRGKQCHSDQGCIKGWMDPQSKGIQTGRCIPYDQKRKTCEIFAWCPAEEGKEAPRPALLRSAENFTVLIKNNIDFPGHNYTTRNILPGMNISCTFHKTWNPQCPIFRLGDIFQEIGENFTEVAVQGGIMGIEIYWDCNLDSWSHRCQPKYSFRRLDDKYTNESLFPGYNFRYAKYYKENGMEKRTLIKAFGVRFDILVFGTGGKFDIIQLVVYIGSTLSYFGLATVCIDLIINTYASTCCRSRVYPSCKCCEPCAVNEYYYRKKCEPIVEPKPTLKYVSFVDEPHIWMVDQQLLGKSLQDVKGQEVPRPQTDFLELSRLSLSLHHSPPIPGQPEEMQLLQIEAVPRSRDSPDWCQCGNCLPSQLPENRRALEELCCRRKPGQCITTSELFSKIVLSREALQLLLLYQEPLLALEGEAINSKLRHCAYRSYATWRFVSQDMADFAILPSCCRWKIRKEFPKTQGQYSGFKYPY
How it was run: as §1

[3] = target: T3, P2X7 receptor (Mus musculus, UniProt Q9Z1M0); settings: mP2X7; HEK-293 cells stably transfected with P2X7 receptor, Bz-ATP at EC80, Fluo-8 NW; potency ranges A-D
T3 construct: mP2X7 (IC50; nM); other: mP2X7; HEK-293 cells stably transfected with P2X7 receptor, Bz-ATP at EC80, Fluo-8 NW; potency
T3 sequence (Q9Z1M0 1-595): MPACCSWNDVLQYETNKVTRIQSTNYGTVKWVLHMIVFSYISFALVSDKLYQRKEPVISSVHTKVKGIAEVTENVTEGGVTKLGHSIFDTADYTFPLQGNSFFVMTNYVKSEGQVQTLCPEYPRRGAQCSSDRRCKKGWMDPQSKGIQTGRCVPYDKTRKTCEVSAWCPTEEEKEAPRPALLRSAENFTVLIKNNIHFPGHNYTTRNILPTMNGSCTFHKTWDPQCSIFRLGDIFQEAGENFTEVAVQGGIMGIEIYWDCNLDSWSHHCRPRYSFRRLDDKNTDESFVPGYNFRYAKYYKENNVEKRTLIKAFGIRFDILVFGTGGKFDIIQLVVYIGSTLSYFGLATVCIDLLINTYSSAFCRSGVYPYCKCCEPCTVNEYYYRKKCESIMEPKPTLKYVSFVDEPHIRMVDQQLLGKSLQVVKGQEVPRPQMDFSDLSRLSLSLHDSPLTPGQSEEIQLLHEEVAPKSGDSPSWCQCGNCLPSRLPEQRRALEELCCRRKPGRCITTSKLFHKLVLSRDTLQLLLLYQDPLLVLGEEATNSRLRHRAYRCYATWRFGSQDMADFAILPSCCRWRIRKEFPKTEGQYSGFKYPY
How it was run: as §1

| SMILES | IC50 [1] | IC50 [2] | IC50 [3] |
| --- | --- | --- | --- |
| Cc1nc(C(F)(F)F)ccc1Cn1c(CC2CCC(F)(F)CC2)noc1=O [Example 192, 3-[(4,4-difluorocyclohexyl)methyl]-4-{[2-methyl-6-(trifluoromethyl)-pyridin-3-yl]methyl}-4,5-dihydro-1,2,4-oxadiazol-5-one] | > 10000 nM | > 10000 nM | > 10000 nM |
| CCn1c(Cc2c(F)cccc2Cl)noc1=O [Example 175, 3-[(2-chloro-6-fluorophenyl)methyl]-4-ethyl-4,5-dihydro-1,2,4-oxadiazol-5-one] | > 10000 nM | > 10000 nM | > 10000 nM |
| Cn1ccnc1Cn1c(CC2CCC(F)(F)CC2)noc1=O [Example 201, 3-[(4,4-difluorocyclohexyl)methyl]-4-[(1-methyl-1H-imidazol-2-yl)methyl]-4,5-dihydro-1,2,4-oxadiazol-5-one] | > 10000 nM | 1000 to 10000 nM | > 10000 nM |
| O=c1onc(Cc2ccc(F)cc2)n1Cc1cccc(Cl)c1Cl [Example 50, 4-[(2,3-dichlorophenyl)methyl]-3-[(4-fluorophenyl)methyl]-4,5-dihydro-1,2,4-oxadiazol-5-one] | > 10000 nM | > 10000 nM | > 10000 nM |
| O=c1onc(Cc2c(F)cccc2Cl)n1CC1COCCO1 (stereo not drawn) [Example 98, 3-[(2-chloro-6-fluorophenyl)methyl]-4-(1,4-dioxan-2-ylmethyl)-4,5-dihydro-1,2,4-oxadiazol-5-one] | > 10000 nM | 1000 to 10000 nM | > 10000 nM |
| COc1cccc(Cc2noc(=O)n2CC2CCCCC2)c1 [Example 127, 4-(cyclohexylmethyl)-3-[(3-methoxyphenyl)methyl]-4,5-dihydro-1,2,4-oxadiazol-5-one] | > 10000 nM | > 10000 nM | > 10000 nM |
| O=c1onc(Cc2ccc(F)cc2)n1Cc1ccc(F)cc1F [Example 53, 4-[(2,4-difluorophenyl)methyl]-3-[(4-fluorophenyl)methyl]-4,5-dihydro-1,2,4-oxadiazol-5-one] | > 10000 nM | 200 to 1000 nM | > 10000 nM |
| CCOCn1c(Cc2c(F)cccc2Cl)noc1=O [Example 101, 3-[(2-chloro-6-fluorophenyl)methyl]-4-(ethoxymethyl)-4,5-dihydro-1,2,4-oxadiazol-5-one] | > 10000 nM | > 10000 nM | > 10000 nM |
| O=c1onc(CN2CCCCC2)n1Cc1ccc(F)cc1 [Example 240, 4-[(4-fluorophenyl)methyl]-3-(piperidin-1-ylmethyl)-4,5-dihydro-1,2,4-oxadiazol-5-one] | > 10000 nM | 1000 to 10000 nM | > 10000 nM |
| O=c1onc(CC2CCC(F)(F)CC2)n1Cc1ccno1 [Example 199, 3-[(4,4-difluorocyclohexyl)methyl]-4-[(1,2-oxazol-5-yl)methyl]-1,2,4-oxadiazol-5(4H)-one] | > 10000 nM | 1000 to 10000 nM | 1000 to 10000 nM |

Second part, the compound after the results:

| IC50 [1] | IC50 [2] | IC50 [3] | SMILES |
| --- | --- | --- | --- |
| 1000 to 10000 nM | 200 to 1000 nM | 200 to 1000 nM | O=c1onc(CN2CCc3ccccc3C2)n1Cc1c(F)cccc1Cl [Example 244, 4-[(2-chloro-6-fluorophenyl)methyl]-3-(1,2,3,4-tetrahydroisoquinolin-2-ylmethyl)-4,5-dihydro-1,2,4-oxadiazol-5-one] |
| 200 to 1000 nM | 200 to 1000 nM | 1000 to 10000 nM | O=c1onc(Cc2ccc(F)cc2)n1CC1CCC(F)(F)CC1 [Example 152, 4-[(4,4-difluorocyclohexyl)methyl]-3-[(4-fluorophenyl)methyl]-4,5-dihydro-1,2,4-oxadiazol-5-one] |
| 1000 to 10000 nM | 1000 to 10000 nM | > 10000 nM | COc1cccc(Cc2noc(=O)n2Cc2ccc(F)cc2)c1 [Example 109, 4-[(4-fluorophenyl)methyl]-3-[(3-methoxyphenyl)methyl]-4,5-dihydro-1,2,4-oxadiazol-5-one] |
| 1000 to 10000 nM | 1000 to 10000 nM | > 10000 nM | O=c1onc(CC2CCC(F)(F)CC2)n1CC1CCCCC1 [Example 133, 4-(cyclohexylmethyl)-3-[(4,4-difluorocyclohexyl)methyl]-4,5-dihydro-1,2,4-oxadiazol-5-one] |
| 1000 to 10000 nM | 1000 to 10000 nM | 1000 to 10000 nM | O=c1onc(CC2CCC(F)(F)CC2)n1Cc1ccc(C(F)(F)F)cc1 [Example 166, 3-[(4,4-difluorocyclohexyl)methyl]-4-{[4-(trifluoromethyl)phenyl]methyl}-4,5-dihydro-1,2,4-oxadiazol-5-one] |
| 1000 to 10000 nM | 1000 to 10000 nM | 1000 to 10000 nM | O=c1onc(Cc2ccc(Cl)cc2Cl)n1Cc1ccc(F)cc1 [Example 74, 3-[(2,4-dichlorophenyl)methyl]-4-[(4-fluorophenyl)methyl]-4,5-dihydro-1,2,4-oxadiazol-5-one] |
| 1000 to 10000 nM | 1000 to 10000 nM | 1000 to 10000 nM | O=c1onc(Cc2cccnc2)n1CC1CCCCC1 [Example 123, 4-(cyclohexylmethyl)-3-(pyridin-3-ylmethyl)-4,5-dihydro-1,2,4-oxadiazol-5-one] |
| 1000 to 10000 nM | 200 to 1000 nM | 1000 to 10000 nM | O=c1onc(Cc2c(F)cccc2Cl)n1CC1CCC1 [Example 69, 3-[(2-chloro-6-fluorophenyl)methyl]-4-(cyclobutylmethyl)-4,5-dihydro-1,2,4-oxadiazol-5-one] |
| 1000 to 10000 nM | 200 to 1000 nM | 1000 to 10000 nM | Cc1cc(F)ccc1Cn1c(CC2CCC(F)(F)CC2)noc1=O [Example 171, 3-[(4,4-difluorocyclohexyl)methyl]-4-[(4-fluoro-2-methylphenyl)methyl]-4,5-dihydro-1,2,4-oxadiazol-5-one] |
| 200 to 1000 nM | 1000 to 10000 nM | > 10000 nM | O=c1onc(Cc2ccc(F)cc2)n1Cc1ccc(Cl)cc1Cl [Example 9, 4-[(2,4-dichlorophenyl)methyl]-3-[(4-fluorophenyl)methyl]-4,5-dihydro-1,2,4-oxadiazol-5-one] |
| < 200 nM | 200 to 1000 nM | 1000 to 10000 nM | Cc1nn(C)c(C)c1Cc1noc(=O)n1CC1CCCCC1 [Example 214, 4-(cyclohexylmethyl)-3-[(trimethyl-1H-pyrazol-4-yl)methyl]-4,5-dihydro-1,2,4-oxadiazol-5-one] |
| 200 to 1000 nM | 200 to 1000 nM | 200 to 1000 nM | Cc1cc(Cn2c(CC3CCC(F)(F)CC3)noc2=O)n(C)n1 [Example 195, 3-[(4,4-difluorocyclohexyl)methyl]-4-[(1,3-dimethyl-1H-pyrazol-5-yl)methyl]-1,2,4-oxadiazol-5(4H)-one] |
